This is an account of results in publication PMC9013686, “Inter-individual variation in chlorpyrifos toxicokinetics characterized by physiologically based kinetic (PBK) and Monte Carlo simulation comparing human liver microsome and Supersome™ cytochromes P450 (CYP)-specific kinetic data as model input” (Archives of Toxicology, 2022).

The subject of one series is RBC AChE. The experiment in a line: PBK model-based reverse dosimetry and BMD analysis of RBC AChE inhibition. On the set-up: species or system human. Here is the method:
In the present study, PBK model-based reverse dosimetry was applied to translate the in vitro rhAChE inhibition concentration–response curve into in vivo RBC AChE inhibition dose–response curves first for the average adult population.
The external dose values thus obtained together with corresponding inhibitory effects were used to construct RBC AChE inhibition dose–response curves for the average population.
A BMD analysis was performed to derive a POD from the predicted in vivo dose–response curves obtained for the average population. In the present study, the BMDL10 values were used as POD based on the fact that the United States Environmental Protection Agency (USEPA) also used a 10% effect level to define a health based guidance value (USEPA [2011], [2014]). BMD analysis was carried out using the Benchmark Dose Software version 3.1.2 (USEPA [2019]), with exponential or hill models because of their adequacy in predicting continuous data. The BMDL10 value with the lowest AIC was chosen and further evaluated by comparing the obtained values with reported BMDL10 by USEPA ([2011], [2014]).

The target in a further series is T1, CYP1A2 (Homo sapiens, UniProt P05177).
T1 sequence (P05177 2-516 limits assumed): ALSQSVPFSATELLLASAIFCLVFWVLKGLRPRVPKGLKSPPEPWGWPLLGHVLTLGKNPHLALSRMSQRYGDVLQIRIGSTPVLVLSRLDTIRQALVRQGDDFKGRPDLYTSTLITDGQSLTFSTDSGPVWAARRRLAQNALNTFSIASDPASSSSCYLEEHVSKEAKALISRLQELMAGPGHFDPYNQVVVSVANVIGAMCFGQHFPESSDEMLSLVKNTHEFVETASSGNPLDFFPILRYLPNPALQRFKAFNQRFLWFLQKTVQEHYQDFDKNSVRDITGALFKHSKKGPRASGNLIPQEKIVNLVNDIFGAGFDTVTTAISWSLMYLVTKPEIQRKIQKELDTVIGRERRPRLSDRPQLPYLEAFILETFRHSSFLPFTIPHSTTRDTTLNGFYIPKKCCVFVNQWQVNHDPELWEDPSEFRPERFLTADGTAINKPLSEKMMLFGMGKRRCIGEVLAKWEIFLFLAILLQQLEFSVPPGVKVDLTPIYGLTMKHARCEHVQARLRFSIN
Particulars: bioactivation of CPF, ref Foxenberg et al. [2007]; cited from earlier work.

The target in the next series is T2, CYP2B6 (Homo sapiens, UniProt P20813).
T2 sequence (P20813 1-491): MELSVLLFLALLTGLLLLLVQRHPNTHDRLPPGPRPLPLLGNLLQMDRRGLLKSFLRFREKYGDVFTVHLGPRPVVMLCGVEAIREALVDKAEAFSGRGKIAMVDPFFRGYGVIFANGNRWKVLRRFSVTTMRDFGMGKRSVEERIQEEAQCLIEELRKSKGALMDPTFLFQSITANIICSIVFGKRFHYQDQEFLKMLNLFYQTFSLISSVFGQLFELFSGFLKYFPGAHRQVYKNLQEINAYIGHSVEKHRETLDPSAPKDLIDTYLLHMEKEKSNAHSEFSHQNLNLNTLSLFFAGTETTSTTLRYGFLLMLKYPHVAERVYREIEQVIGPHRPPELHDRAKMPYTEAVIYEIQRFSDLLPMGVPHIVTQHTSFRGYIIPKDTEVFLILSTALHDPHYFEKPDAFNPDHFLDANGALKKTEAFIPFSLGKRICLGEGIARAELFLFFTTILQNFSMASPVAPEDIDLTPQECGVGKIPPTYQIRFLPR
Conditions: bioactivation of CPF, ref Foxenberg et al. [2007]; cited from earlier work.

The test system of a further series is rat liver microsomes. Particulars: bioactivation of CPF, biphasic kinetics; ref Ma and Chambers ([1995]); cited from earlier work.

What is called Km is the concentration of substrate that gives half-maximal velocity.

For `CCOP(=S)(OCC)Oc1nc(Cl)c(Cl)cc1Cl` [CPF, Chlorpyrifos], the figures for the “predicted BMDL10 lower than reported human model-derived BMDL10” value in the series with RBC AChE (HLM-based biphasic PBK model versus USEPA [2014]) and in the series on RBC AChE (Supersome-based PBK model versus USEPA [2014]) were 1.8 fold and 1.9 fold, respectively. The “BMDL10 of HLM-based approach with biphasic kinetics versus HLM-based approach without high affinity component” value in the series with RBC AChE (average population) is “sixfold lower”. Moreover, the “difference in BMDL10 between HLM-based (biphasic) and Supersome-based PBK model” value in the series on RBC AChE (average population) is 1.04 fold. Moreover, in the series on RBC AChE (non-biphasic HLM-based PBK model versus USEPA [2014]), the “predicted BMDL10 higher than reported human model-derived BMDL10” value is reported as 3.3 fold. For the same compound, the results for the Michaelis constant (Km) on CYP1A2 and at CYP2B6 were 0.38 µM and 0.81 µM, respectively. In addition, the “Km of high affinity phase lower than that of low affinity phase” value in the series with rat liver microsomes is 50 fold.
